{"source": "patent US20120149780A1", "about": "“Method of Use of Vitamin K as Energy Enhancer in Diverse Disease States” (priority 2009, published 2012)", "key": {"[1]": {"conditions": "literature supplemental trials, oral supplementation; cited from earlier work"}, "[2]": {"conditions": "500 μg/day, 36-month, older men; cited from earlier work"}, "[3]": {"test": "Blood pressure in individual subjects taking vitamin K2-7 (case reports)", "assay_type": "in vivo, human", "experimental": "Person, with hypercholesterolemia (Lipid Profile; 200 mg—Total cholesterol) for which they are taking Atorvastatin 5 mg one per day and 75 mg of Aspirin one per/day since last five years. Underwent angioplasty. They were also having blood pressure which ranges from 136-134/90-88 mmHg. They were taking Telmisartan 40 mg/day from last 4 years for hypertension. Then about 6 months ago they started taking vitamin K2-7 in daily dose of 200 μg. Currently they have stopped taking anti-hypertensive medication from last 1 month. Over a period of 1 and ½ months it is observed that their blood pressure has dropped down to 118-114/78-84 mmHg. Now they are off any anti-hypertensive medicine and continues with vitamin K2-7 only.\n(§1) Person was having hypertension (160/114 mmHg) but was not on any medication. They complained of fatigue and low energy level. They were put on 3 capsules per day of 100 μg of vitamin K2-7 for 1 month and then on 2 capsule per day of 350 μg of vitamin K2-7 for the next 2 months under close observation by medical doctor. […] They continued the medicine for next couple of month with same dose i.e. 2 capsules per day of 350 μg of vitamin K2-7. […] Then they were taken off from the treatment for 15 days. Blood pressure shot up to 146/108 mmHg, They were again put on vitamin K2-7, 350 μg, 2 capsules per day and their blood pressure came down to 136/100 mmHg.\n(§2) Person, healthy otherwise, was having blood pressure on higher side i.e. 130/90 mmHg. They were advised to start taking vitamin K2-7, in a dose of 650 μg, one capsule per day."}, "[4]": {"test": "Fatigue, energy level and exertion endurance in individual subjects (case reports)", "assay_type": "in vivo, human", "experimental": "Person, suffering from general fatigue. They used to go to Gold gym 5-6 times per month. On the treadmill they used to walk at 5 km/hr speed at the start of the exercise and then gradually increase it to 6 km/hr in the next 15 minutes. When they started taking vitamin K2-7 350 μg per day, within 2 weeks of taking vitamin K2-7, they could start at 6 km/hr and go on up to 6.4 km/hr on the treadmill without feeling the strain they felt earlier. […] Their treadmill experience, was now smooth and ‘effortless’.\n(§3) Person, was diagnosed to have bilateral ovarian cancer in 2005, with ascites and abdominal lymph node metastases. They have undergone surgery and several courses of chemotherapy. […] They are currently under chemotherapy cycles. They tolerated chemotherapy reasonably well but complained of marked fatigue and low energy levels. […] They were given a larger dose of vitamin K2-7 per day. […] They are continued on the dose of vitamin K2-7 for two months.\n(§4) Their complaints were fatigue, low energy level, muscle cramps and tingling and numbness of lower limbs. […] These returned with drawal and were relieved with re-therapy. […] They were started 350 μg per day of vitamin K2-7 over the two months period.\nas §1\nPerson, was heaving history of Spondylosis, Diabetes mellitus and Hypertension. Five years ago they were operated for cataract (right eye). They are on regular medicine i.e. Atenol50™, one per day, after breakfast, Insulin2™ one per day after lunch, and Diaonil5™, two times a day. They were complaining of fatigue and lack of energy so much so that they found ascending 20 steps at a time difficult with related exhaustion and breathlessness. They were advised to take vitamin K2-7, 350 μg, one cap per day."}, "[5]": {"test": "Muscle cramps and neuropathic symptoms of lower limbs (case report)", "assay_type": "in vivo, human", "conditions": "Example 06: person", "experimental": "as §4"}, "[6]": {"test": "Post-chemo restlessness/akathisia in ovarian cancer patient (case report)", "assay_type": "in vivo, human", "conditions": "Example 05: person, ovarian cancer under chemotherapy", "from_the_text": "as §3"}, "CEA": {"test_system": "CEA", "test": "CEA levels in ovarian cancer patient (case report)", "assay_type": "in vivo, human", "conditions": "Example 05: person, under chemotherapy and vitamin K2-7", "from_the_text": "as §3"}, "[7]": {"test": "Side effects / adverse effects noted during treatment (case reports)", "assay_type": "in vivo, human", "experimental": "as §4, §2"}}}
{"compound": "CN(CC(=O)O)C(=N)N", "note": "[creatine]", "values": [{"measurement": "effect of supplementation on VO2max / aerobic capacity / exercise performance", "setting": "[1]", "result": "improves exercise performance"}]}
{"compound": "vitamin K", "values": [{"measurement": "progression of insulin resistance", "setting": "[2]", "result": "reduction in progression of insulin resistance"}]}
{"compound": "phosphate [Oral phosphate]", "values": [{"measurement": "effect of supplementation on VO2max / aerobic capacity / exercise performance", "setting": "[1]", "result": "no improvement in aerobic capacity"}]}
{"compound": "CC(O)C(=O)O", "note": "(stereo not drawn) [lactate]", "values": [{"measurement": "effect of supplementation on VO2max / aerobic capacity / exercise performance", "setting": "[1]", "result": "unaffected"}]}
{"compound": "NC(=O)C1=CN([C@@H]2O[C@H](COP(=O)(O)OP(=O)(O)OC[C@H]3O[C@@H](n4cnc5c(N)ncnc54)[C@H](O)[C@@H]3O)[C@@H](O)[C@H]2O)C=CC1", "note": "[NADH, Nicotinamide Adenine Dinucleotide Hydride]", "values": [{"measurement": "effect of supplementation on VO2max / aerobic capacity / exercise performance", "setting": "[1]", "result": "no effects on maximal oxygen uptake VO2max, maximal anaerobic running time or mental performance"}]}
{"compound": "CC(C)=CCC/C(C)=C/CC/C(C)=C/CC/C(C)=C/CC/C(C)=C/CC/C(C)=C/CC/C(C)=C/CC1=C(C)C(=O)c2ccccc2C1=O", "note": "[vitamin K2-7]", "values": [{"measurement": "blood pressure", "setting": "[3]; Example 07: 2x350 μg/day restarted after 15 days off treatment (146/108 off treatment)", "result": "136/100"}, {"measurement": "blood pressure", "setting": "[3]; Example 07: continued 2x350 μg/day for next couple of months", "result": "138/104"}, {"measurement": "blood pressure", "setting": "[3]; Example 07: person, 3x100 μg/day 1 month then 2x350 μg/day 2 months, baseline 160/114", "result": "140/108"}, {"measurement": "blood pressure", "setting": "[3]; Example 08: person, 650 μg one capsule/day, 2 months, baseline 130/90", "result": "112/80"}, {"measurement": "general fatigue", "setting": "[4]; Example 04: person, 350 μg/day", "result": "general fatigue had reduced"}, {"measurement": "treadmill starting speed", "setting": "[4]; Example 04: person, 350 μg/day, within 2 weeks, earlier start 5 km/hr", "result": 6, "unit": "km/hr"}, {"measurement": "treadmill speed reached", "setting": "[4]; Example 04: person, 350 μg/day, within 2 weeks, earlier up to 6 km/hr", "result": 6.4, "unit": "km/hr"}, {"measurement": "fatigue and energy level", "setting": "[4]; Example 05: person, ovarian cancer under chemotherapy, 100 μg/day", "result": "not much relief in fatigue and energy level"}, {"measurement": "fatigue and energy level", "setting": "[4]; Example 05: person, ovarian cancer under chemotherapy, larger dose, within six weeks", "result": "less fatigue and significant improvement in the energy level"}, {"measurement": "fatigue and low energy levels", "setting": "[4]; Example 06: person, 100 μg/day", "result": "only mildly relieved"}, {"measurement": "fatigue and energy level", "setting": "[4]; Example 06: person, 350 μg/day over two months", "result": "significant relief in fatigue and reasonable increases in the energy level"}, {"measurement": "fatigue and energy at work", "setting": "[4]; Example 07: person, hypertensive, 2x350 μg/day", "result": "improvement in fatigue and feels more energetic at work"}, {"measurement": "energy / ability to climb stairs", "setting": "[4]; Example 09: person, diabetes and hypertension, 350 μg one cap/day, after a month", "result": "started feeling more energetic and would walk up the stairs easily without any problem"}, {"measurement": "symptoms of the nerves and muscle (cramps, tingling and numbness of lower limbs)", "setting": "[5]; 100 μg/day", "result": "significantly relieved"}, {"measurement": "cramps and neuropathic symptoms", "setting": "[5]; 350 μg/day over two months", "result": "markedly reduced"}, {"measurement": "post-chemo restlessness/akathisia", "setting": "[6]", "result": "did not benefit"}, {"measurement": "CEA levels", "setting": "CEA", "result": "dropped markedly"}, {"measurement": "side effects", "setting": "[7]; Example 06: person, 100 then 350 μg/day", "result": "no side effects"}, {"measurement": "adverse effects", "setting": "[7]; Example 08: person, 650 μg/day, 2 months", "result": "no adverse effects"}]}
{"compound": "CN(CC(=O)O)C(=N)N.O", "note": "[Creatine monohydrate]", "values": [{"measurement": "effect of supplementation on VO2max / aerobic capacity / exercise performance", "setting": "[1]", "result": "did not increase performance"}]}
{"compound": "C[N+](C)(C)C[C@H](O)CC(=O)[O-]", "note": "[L-carnitine]", "values": [{"measurement": "effect of supplementation on VO2max / aerobic capacity / exercise performance", "setting": "[1]", "result": "unlikely to be associated with the enhanced exercise performance"}]}
{"compound": "O=C1O[C@H]([C@@H](O)CO)C(O)=C1O", "note": "[vitamin C]", "values": [{"measurement": "effect of supplementation on VO2max / aerobic capacity / exercise performance", "setting": "[1]", "result": "neither vitamin E nor C, either alone or in combination, enhanced exercise performance"}]}
{"compound": "OC[C@H]1O[C@@H](n2cnc3c(O)ncnc32)[C@H](O)[C@@H]1O", "note": "[Inosine]", "values": [{"measurement": "effect of supplementation on VO2max / aerobic capacity / exercise performance", "setting": "[1]", "result": "no effect on aerobic performance"}]}
{"compound": "vitamin E", "values": [{"measurement": "effect of supplementation on VO2max / aerobic capacity / exercise performance", "setting": "[1]", "result": "neither vitamin E nor C, either alone or in combination, enhanced exercise performance"}]}
{"compound": "CC(CN1c2ccccc2Sc2ccccc21)N(C)C", "note": "(stereo not drawn) [phenergan, reference compound]", "values": [{"measurement": "post-chemo restlessness/akathisia", "setting": "[6]", "result": "relieved"}]}
